Like-named read-outs stand apart in the source and are kept apart here.
Legend:
[1] = target: T1, fibrinogen receptor (glycoprotein IIb/IIIa) (Homo sapiens, UniProt P05106+P08514); assay: Inhibition of binding of 125I-fibrinogen to its receptor on intact, gel-filtered human platelets; conditions: inhibition of 125I-fibrinogen binding, stimulation with ADP (10 μM), read-out: Ki (μM), ADP-stimulated
T1 construct: endogenous in cells; host or cells: gel-filtered human platelets from donor blood, stimulated with ADP (10 µM)
Method: (§1) The compounds are tested in particular for their inhibitory action in blood platelet aggregation and the adhesion of fibrinogen to blood platelets. Gel-filtered blood platelets from human donor blood are used, which are activated with ADP or thrombin.
The inhibition of the binding of fibrinogen to its receptor (glycoprotein IIb/IIIa) by the compounds according to the invention is tested on intact, gel-filtered human platelets. The Ki value of the inhibition of binding of ^125 I-fibrinogen after stimulation with ADP (10 μM) is given.

[2] = test system: gel-filtered human platelets; assay: Inhibition of aggregation of gel-filtered human platelets after ADP or thrombin stimulation; format: cell-based
Method: as §1
As a functional test, the inhibition of aggregation of gel-filtered human platelets by the compounds according to the invention is measured after ADP or thrombin stimulation. The IC50 value of the inhibition is given.

[3] = Platelet, ADP stimulation, read-out: IC50 (μM), ADP-stimulated
[4] = Platelet, thrombin stimulation, read-out: IC50 (μM), Thrombin-stimulated
[5] = ADP stimulation, read-out: IC50 (μM), ADP-stimulated
[6] = thrombin stimulation, read-out: IC50 (μM), Thrombin-stimulated

T1 sequence (P08514 32-887 limits assumed): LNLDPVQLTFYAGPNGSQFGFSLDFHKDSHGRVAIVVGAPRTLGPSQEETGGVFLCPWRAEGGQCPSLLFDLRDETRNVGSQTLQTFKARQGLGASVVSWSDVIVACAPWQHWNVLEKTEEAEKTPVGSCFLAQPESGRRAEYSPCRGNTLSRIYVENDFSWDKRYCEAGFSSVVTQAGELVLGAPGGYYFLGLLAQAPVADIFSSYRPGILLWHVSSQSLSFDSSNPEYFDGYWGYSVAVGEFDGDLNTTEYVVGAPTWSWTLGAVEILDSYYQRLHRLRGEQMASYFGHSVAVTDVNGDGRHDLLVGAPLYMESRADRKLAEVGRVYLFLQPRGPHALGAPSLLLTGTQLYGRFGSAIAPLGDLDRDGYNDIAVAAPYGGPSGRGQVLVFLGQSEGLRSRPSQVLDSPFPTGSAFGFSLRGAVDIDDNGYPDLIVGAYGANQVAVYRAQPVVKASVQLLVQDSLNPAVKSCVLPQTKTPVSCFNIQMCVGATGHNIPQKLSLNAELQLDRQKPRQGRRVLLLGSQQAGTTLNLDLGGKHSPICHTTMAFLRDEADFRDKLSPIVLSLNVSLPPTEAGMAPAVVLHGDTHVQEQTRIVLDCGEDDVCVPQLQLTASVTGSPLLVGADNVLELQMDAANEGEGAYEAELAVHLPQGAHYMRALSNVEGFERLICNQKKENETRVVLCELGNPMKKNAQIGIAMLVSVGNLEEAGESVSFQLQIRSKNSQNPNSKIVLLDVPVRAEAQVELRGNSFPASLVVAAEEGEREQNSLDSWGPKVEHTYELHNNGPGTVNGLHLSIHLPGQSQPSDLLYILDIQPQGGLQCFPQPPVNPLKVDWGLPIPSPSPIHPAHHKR
T1 sequence (P08514 891-1039 partner limits assumed): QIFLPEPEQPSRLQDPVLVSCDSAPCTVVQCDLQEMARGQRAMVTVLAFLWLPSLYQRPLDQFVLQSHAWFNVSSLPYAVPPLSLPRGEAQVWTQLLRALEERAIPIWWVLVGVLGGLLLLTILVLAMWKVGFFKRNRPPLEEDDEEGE
T1 sequence (P05106 27-788): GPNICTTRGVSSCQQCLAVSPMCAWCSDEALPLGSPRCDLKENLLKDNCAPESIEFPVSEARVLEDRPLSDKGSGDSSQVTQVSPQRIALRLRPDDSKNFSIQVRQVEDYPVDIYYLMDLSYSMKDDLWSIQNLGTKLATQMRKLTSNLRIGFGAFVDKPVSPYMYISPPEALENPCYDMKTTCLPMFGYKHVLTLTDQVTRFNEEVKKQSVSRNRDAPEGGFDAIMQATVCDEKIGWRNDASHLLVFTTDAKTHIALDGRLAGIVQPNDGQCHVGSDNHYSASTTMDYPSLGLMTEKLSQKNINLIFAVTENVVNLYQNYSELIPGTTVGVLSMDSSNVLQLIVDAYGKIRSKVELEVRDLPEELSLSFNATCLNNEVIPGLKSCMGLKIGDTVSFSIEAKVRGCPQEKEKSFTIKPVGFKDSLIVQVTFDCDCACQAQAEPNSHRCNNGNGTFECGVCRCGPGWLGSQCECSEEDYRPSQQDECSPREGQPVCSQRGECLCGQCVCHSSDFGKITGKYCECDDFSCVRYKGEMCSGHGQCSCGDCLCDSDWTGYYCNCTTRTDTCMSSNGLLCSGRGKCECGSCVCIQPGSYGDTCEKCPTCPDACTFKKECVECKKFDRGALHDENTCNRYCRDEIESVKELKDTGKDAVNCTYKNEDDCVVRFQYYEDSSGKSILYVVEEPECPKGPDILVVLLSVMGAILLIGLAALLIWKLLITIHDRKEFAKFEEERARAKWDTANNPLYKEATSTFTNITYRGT

| Compound | Ki [1] [µM] | IC50 [2, 3] [µM] | IC50 [2, 4] [µM] | IC50 [2, 5] [µM] | IC50 [2, 6] [µM] |
| --- | --- | --- | --- | --- | --- |
| N=C(N)NCCC[C@@H]1NC(=O)N(CC(=O)N[C@@H](CC(=O)O)C(=O)N[C@@H](Cc2ccccc2)C(=O)NCCCCN)C1=O [Example 1, (5-(S)-(3-Guanidinopropyl)-2,4-dioxoimidazolidin-3-yl)acetyl-L-aspartyl-L-phenylalanine (4-aminobutyl) amide acetate] | 2.5 | 1.5 | 2 |  |  |
| N=C(N)NCCC[C@@H]1NC(=O)N(CC(=O)N[C@@H](CC(=O)O)C(=O)N[C@@H](Cc2ccccc2)C(=O)NCCCCCCN)C1=O [Example 2, (5-(S)-(3-Guanidinopropyl)-2,4-dioxoimidazolidin-3-yl)acetyl-L-aspartyl-L-phenylalanine (6-aminohexyl) amide acetate] | 2.44 | 3 | 3.5 |  |  |
| N=C(N)c1ccc(CC2NC(=O)N(CC(=O)N[C@@H](CC(=O)O)C(=O)N[C@@H](Cc3ccccc3)C(=O)NCCCCN)C2=O)cc1 (stereo partly drawn) [Example 4, (5-(R,S)-(4-Formamidinobenzyl)-2,4-dioxoimidazolidin-3-yl)acetyl-L-aspartyl-L-phenylalanine (4-aminobutyl) amide acetate] | 0.32 |  |  | 0.45 | 1 |

The next lines start with results.

| Ki [1] [µM] | IC50 [2, 3] [µM] | IC50 [2, 4] [µM] | Compound | IC50 [2, 5] [µM] | IC50 [2, 6] [µM] |
| --- | --- | --- | --- | --- | --- |
| 3.21 | 5 | 3 | N=C(N)NCCC[C@@H]1NC(=O)N(CC(=O)N[C@@H](CC(=O)O)C(=O)N[C@@H](Cc2ccccc2)C(=O)NCCCCCCCCN)C1=O [Example 3, (5-(S)-(3-Guanidinopropyl)-2,4-dioxoimidazolidin-3-yl)acetyl-L-aspartyl-L-phenylalanine (8-aminooctyl) amide acetate] |  |  |
| 0.17 |  |  | N=C(N)c1ccc(CC2NC(=O)N(CC(=O)N[C@@H](CC(=O)O)C(=O)N[C@@H](CCCCN)C(=O)NCCCCN)C2=O)cc1 (stereo partly drawn) [Example 7, (5-(R,S)-(4-Formamidino-benzyl)-2,4-dioxoimidazolidin-3-yl)acetyl-L-aspartyl-L-lysine (4-aminobutyl) amide] | 0.25 | 0.6 |

— US5397796A, “2,4-dioxoimidazolidine compounds and compositions, and processes for administering same” (Cassella AG, priority 1992, dated 1995)
